For orientation: Ki means a dissociation constant, usually derived from enzyme kinetics or from competition with a known ligand. As a reminder, the IC50 is the point on the concentration scale where inhibition reaches its midpoint.

The target of experiment [1] is T1, human cannabinoid CB1 receptor (Homo sapiens, UniProt P21554).
T1 construct: purchased Perkin Elmer Inc., Singapore Pte; Ltd. RBHCB1M400UA; host or cells: HEK293-EBNA cell membranes (overexpressing)
Put plainly: biochemical. Format: binding. The settings on record: for inhibition at 10 µM: displacement of [3H]CP-55940 at 10 μM compound, read-out: CB1 Max Tested µM (% Displacement).

Experiment [2] has as its target T2, human recombinant cannabinoid CB2 receptor (Homo sapiens, UniProt P34972).
T2 construct: purchased Perkin Elmer Inc., Singapore Pte; Ltd. RBXCB2M400UA; host or cells: HEK293-EBNA cell membranes (overexpressing)
Put plainly: CB2 radioligand displacement binding assay ([3H]CP-55940). The conditions noted are these: for Ki: Cheng–Prusoff from IC50, [3H]CP-55940 0.5 nM; for Ki / IC50: mean ± SEM n = 3; for IC50: [3H]CP-55940 0.5 nM, hCB2 HEK293-EBNA membranes; for inhibition at 10 µM: displacement of [3H]CP-55940 at 10 μM compound, read-out: CB2 Max Tested µM (% Displacement). (In a radioligand displacement assay an active substance lowers the binding of a labelled ligand.)

Another experiment relates to U87MG cells. Put plainly: cells. The conditions noted are these: MTT dose–response curve, unit not given. How it is done: HEK293, U87MG, and HL-60 cell lines were seeded in a flat-bottom 96-well plate at a density of 10,000 cells per well. […] All compounds were incubated at 0.1 μM in 200 μL of culture medium supplemented with 10% FBS, in a flat-bottom 96-well plate at a density of 10,000 cells per well, at 37 °C for 72 h. Next, 20 μL of a 5 mg/mL MTT solution was added, and the cells were incubated at 37 °C for 4 h. Then, they were solubilized with 10% sodium dodecyl sulfate (SDS) in 0.1 mM HCl and incubated overnight at 37 °C. Formazan absorbance of each well was measured using the EPOCH microplate reader (Biotek, Winooski, VT, USA) at a wavelength of 570 nm. […]
promyelocytic leukemia cells (HL-60) were maintained at 5% CO2 and 37 °C in DMEM, EMEM and RPMI medium, respectively containing 10% Fetal Bovine Serum and 100 U/mL penicillin and 100 […]
Cell viability: ([MTT - (3-(4,5-dimethylthiazol-2-yl)-2,5-diphenyltetrazolium bromide) - formazan] HEK293, U87MG, and HL-60 cells were first quantified to determine the exact number to be used in […]
with the Beer-Lambert(1).
HEK293, U87MG and HL-60 cell lines were seed in a flat-bottom 96-wells plate at a density of 10,000 […]
concentrations (0.001 μM to 10 μM) in 200 μL of respective culture medium supplemented with 10% fetal bovine serum (FBS), at 37 °C for 72 hours. Subsequently, 20 μL of 5 mg/mL MTT solution was added to each well, and cells were incubated at 37 °C for 4 h. The resulting formazan crystals were then solubilized with 10% sodium dodecyl sulfate (SDS) in 0.1 mM HCl, followed by overnight incubation at 37 °C. Untreated cells were used as the control, 0.1% of dimethyl sulfoxide (DMSO) as the vehicle control, and 0.2 % of Triton X-100 as a positive control for cell death. IC 50 toxicity values […]
same conditions described in the previous paragraph. […]
determined IC50. The stimulation with both CB ligands was performed simultaneously.
All compounds were incubated at 0.1 μM in 200 μL of culture medium supplemented with 10% FBS, in a flat-bottom 96-well plate at a density of 10,000 cells per well, at 37°C for 72 hours. Next, 20 μL of a 5 mg/mL MTT solution was added, and the cells were incubated at 37°C for 4 hours. Then, they were solubilized with 10% sodium dodecyl sulfate (SDS) in 0.1 mM HCl and incubated overnight at 37°C. Formazan absorbance of each well was measured using the EPOCH microplate reader (Biotek, USA) at a wavelength of 570 nm.
[1]Mosorov, V., The Lambert-Beer law in time domain form and its application.

The mark [3] stands for this setting: Cheng–Prusoff from IC50, [3H]CP-55940 0.5 nM, mean ± SEM n = 3, read-out: CB1 Ki.
[4] abbreviates: [3H]CP-55940 0.5 nM, hCB1 HEK293-EBNA membranes, mean ± SEM n = 3, read-out: CB1 IC50.

The structures appear in SMILES notation. Where “and” joins values, the source holds several entries; their conditions need not be identical. Identical values can stand only once. Like-named read-outs stand apart in the source and are kept apart here.

T1 sequence (P21554 whole entry): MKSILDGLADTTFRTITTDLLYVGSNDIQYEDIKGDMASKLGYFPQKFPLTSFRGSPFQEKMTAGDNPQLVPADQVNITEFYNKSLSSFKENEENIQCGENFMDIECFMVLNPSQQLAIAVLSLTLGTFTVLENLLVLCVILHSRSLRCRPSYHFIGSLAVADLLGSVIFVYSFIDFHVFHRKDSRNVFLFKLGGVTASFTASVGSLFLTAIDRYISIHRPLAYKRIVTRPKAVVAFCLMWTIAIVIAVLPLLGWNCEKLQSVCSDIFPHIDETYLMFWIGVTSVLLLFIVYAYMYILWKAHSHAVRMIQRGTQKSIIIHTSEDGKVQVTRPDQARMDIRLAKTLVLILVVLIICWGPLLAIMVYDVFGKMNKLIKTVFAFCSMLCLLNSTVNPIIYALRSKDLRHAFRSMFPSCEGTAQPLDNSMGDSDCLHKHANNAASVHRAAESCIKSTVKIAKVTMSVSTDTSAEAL
T2 sequence (P34972 whole entry): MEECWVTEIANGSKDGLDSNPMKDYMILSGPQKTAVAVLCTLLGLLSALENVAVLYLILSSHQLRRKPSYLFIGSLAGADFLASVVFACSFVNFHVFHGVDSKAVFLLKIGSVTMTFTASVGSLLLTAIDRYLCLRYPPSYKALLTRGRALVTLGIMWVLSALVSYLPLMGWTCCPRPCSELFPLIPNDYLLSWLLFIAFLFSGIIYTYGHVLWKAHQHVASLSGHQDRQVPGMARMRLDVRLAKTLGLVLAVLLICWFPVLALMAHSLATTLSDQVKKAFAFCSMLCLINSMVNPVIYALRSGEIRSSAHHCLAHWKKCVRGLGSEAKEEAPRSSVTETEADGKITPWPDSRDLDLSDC

Take `COc1cccc(-c2nc3ccc(F)cc3n2C(=O)c2cccc3ccccc23)c1` [5b′, (6-fluoro-2-(3-methoxyphenyl)-1H-benzo[d]imidazol-1-yl)(naphthalen-1-yl)methanone]: the Ki in experiment [1] (setting [3]) and in experiment [2] was more than 10 µM throughout. In addition, the IC50 in experiment [1] (setting [4]) and in experiment [2] was more than 10 µM in each case. For the same compound, the inhibition at 10 µM in experiment [1] is 47%; in experiment [2], 53.5%.
With `O=C(c1cccc2ccccc12)n1c(-c2ccon2)nc2ccc(Cl)cc21` [4d′], in experiment [1], the half-maximal inhibitory concentration (IC50) was more than 10 µM and the inhibition at 10 µM is 47%. The inhibition constant (Ki) in experiment [1] (CB1 Ki) was more than 10 µM. Also, in experiment [2], the Ki is more than 10 µM, the IC50 was more than 10 µM and the inhibition at 10 µM stood at 42%.
Regarding `COc1cccc(-c2nc3cc(Cl)ccc3n2C(=O)c2cccc3ccccc23)c1` [Compound 4b], the Ki in experiment [1] (setting [3]) and in experiment [2] was more than 10 µM each time. Besides, the IC50 in experiment [1] (setting [4]) and in experiment [2] was more than 10 µM each time. The inhibition at 10 µM in experiment [1] was found to be 39%; in experiment [2], 48%.
For the compound `O=C(c1cccc2ccccc12)n1c(-c2cccnc2)nc2cc(Cl)ccc21` [Compound 4a], the Ki is more than 10 µM in experiment [1] (setting [3]) and 6.6 µM in experiment [2]. Moreover, the IC50 in experiment [1] (setting [4]) is more than 10 µM. Further, the inhibition at 10 µM in experiment [1] was found to be 36%; in experiment [2], 35%.
Consider `O=C(c1cccc2ccccc12)n1c(-c2ccon2)nc2cc(F)ccc21` [Compound 5d, (5-fluoro-2-(isoxazol-3-yl)-1H-benzo[d]imidazol-1-yl)(naphthalen-1-yl)methanone], for which the Ki in experiment [1] (setting [3]) and in experiment [2] was more than 10 µM in each case. For the same compound, the IC50 in experiment [1] (setting [4]) and in experiment [2] was more than 10 µM throughout. The results for the inhibition at 10 µM in experiment [1] and in experiment [2] were 54% and 51%, respectively.
`Cc1ccc(-c2nc3ccc(F)cc3n2C(=O)c2cccc3ccccc23)o1` [5e′, (6-fluoro-2-(5-methylfuran-2-yl)-1H-benzo[d]imidazol-1-yl)(naphthalen-1-yl)methanone]: the Ki in experiment [1] (setting [3]) and in experiment [2] was more than 10 µM throughout. In addition, the IC50 in experiment [1] (setting [4]) and in experiment [2] was more than 10 µM each time. For the same compound, the figures for the inhibition at 10 µM in experiment [1] and in experiment [2] were 43% and 52%, respectively.
With `Cc1cc(-c2nc3cc(F)ccc3n2C(=O)c2cccc3ccccc23)no1` [Compound 5c, (5-fluoro-2-(5-methylisoxazol-3-yl)-1H-benzo[d]imidazol-1-yl)(naphthalen-1-yl)methanone], the Ki in experiment [1] (setting [3]) and in experiment [2] was more than 10 µM each time. Also, the IC50 in experiment [1] (setting [4]) and in experiment [2] was more than 10 µM each time. Moreover, the values for the inhibition at 10 µM in experiment [1] and in experiment [2] were 54.5% and 24%, respectively.
As for `Cc1ccc(-c2nc3ccc(Cl)cc3n2C(=O)c2cccc3ccccc23)o1` [4e′], the Ki in experiment [1] (setting [3]) and in experiment [2] was more than 10 µM each time. The IC50 in experiment [1] (setting [4]) and in experiment [2] was more than 10 µM each time. Moreover, the inhibition at 10 µM in experiment [1] was 38%; in experiment [2], 52.8%.
For `O=C(c1cccc2ccccc12)n1c(-c2cccnc2)nc2ccc(Cl)cc21` [4a′], the Ki in experiment [1] (setting [3]) was more than 10 µM. For the same compound, the IC50 in experiment [1] (setting [4]) is more than 10 µM. Also, the inhibition at 10 µM was 20% in experiment [1] and 52% in experiment [2].
As for `Cc1cc(-c2nc3cc(Cl)ccc3n2C(=O)c2cccc3ccccc23)no1` [Compound 4c], the Ki in experiment [1] (setting [3]) and in experiment [2] was more than 10 µM in each case. Also, the IC50 in experiment [1] (setting [4]) and in experiment [2] was more than 10 µM in each case. Moreover, the inhibition at 10 µM in experiment [1] worked out at 38%; in experiment [2], 30%.
Regarding `O=C(c1cccc2ccccc12)n1c(-c2cccnc2)nc2ccc(F)cc21` [5a′, (6-fluoro-2-(pyridin-3-yl)-1H-benzo[d]imidazol-1-yl)(naphthalen-1-yl)methanone], the Ki in experiment [1] (setting [3]) and in experiment [2] was more than 10 µM throughout. Besides, the IC50 in experiment [1] (setting [4]) and in experiment [2] was more than 10 µM throughout. Further, the inhibition at 10 µM in experiment [1] turned out to be 9.5%; in experiment [2], 16%.
In the case of `Cc1ccc(-c2nc3cc(Cl)ccc3n2C(=O)c2cccc3ccccc23)o1` [Compound 4e], the Ki in experiment [1] (setting [3]) and in experiment [2] was more than 10 µM throughout. In addition, the IC50 in experiment [1] (setting [4]) and in experiment [2] was more than 10 µM each time. Besides, the inhibition at 10 µM in experiment [1] came to 30%; in experiment [2], 29%.
Take `O=C(c1cccc2ccccc12)n1c(-c2cccnc2)nc2cc(F)ccc21` [Compound 5a]: the Ki in experiment [1] (setting [3]) and in experiment [2] was more than 10 µM in each case. For the same compound, the IC50 in experiment [1] (setting [4]) and in experiment [2] was more than 10 µM in each case. Further, the inhibition at 10 µM in experiment [1] was 41%; in experiment [2] it was 43%.
Turning to `O=C(c1cccc2ccccc12)n1c(-c2ccon2)nc2ccc(F)cc21` [5d′, (6-fluoro-2-(isoxazol-3-yl)-1H-benzo[d]imidazol-1-yl)(naphthalen-1-yl)methanone], the Ki in experiment [1] (setting [3]) and in experiment [2] was more than 10 µM each time. Further, the IC50 in experiment [1] (setting [4]) and in experiment [2] was more than 10 µM in each case. Moreover, the values for the inhibition at 10 µM in experiment [1] and in experiment [2] were 34% and 26%, respectively.
As for `Cc1cc(-c2nc3ccc(Cl)cc3n2C(=O)c2cccc3ccccc23)no1` [4c′], the Ki in experiment [1] (setting [3]) and in experiment [2] was more than 10 µM throughout. Further, the IC50 in experiment [1] (setting [4]) and in experiment [2] was more than 10 µM in each case. The inhibition at 10 µM was found to be 44% in experiment [1] and 29% in experiment [2].
Take `O=C(c1cccc2ccccc12)n1c(-c2ccco2)nc2cc(Cl)ccc21` [Compound 4f]: the Ki in experiment [1] (setting [3]) and in experiment [2] was more than 10 µM in each case. The IC50 in experiment [1] (setting [4]) and in experiment [2] was more than 10 µM each time. Further, the inhibition at 10 µM in experiment [1] was more than 50%; in experiment [2], 46.5%.
Take `Cc1cc(-c2nc3ccc(F)cc3n2C(=O)c2cccc3ccccc23)no1` [5c′, (6-fluoro-2-(5-methylisoxazol-3-yl)-1H-benzo[d]imidazol-1-yl)(naphthalen-1-yl)methanone]: the Ki in experiment [1] (setting [3]) and in experiment [2] was more than 10 µM throughout. Moreover, the IC50 in experiment [1] (setting [4]) and in experiment [2] was more than 10 µM throughout. The inhibition at 10 µM in experiment [1] worked out at 37%; in experiment [2], 29%.
Consider `O=C(c1cccc2ccccc12)n1c(-c2ccco2)nc2cc(F)ccc21` [Compound 5f, (5-fluoro-2-(furan-2-yl)-1H-benzo[d]imidazol-1-yl)(naphthalen-1-yl)methanone], for which the Ki in experiment [1] (setting [3]) is ~1.48 µM and 1.48 µM; in experiment [2], more than 10 µM. Besides, the IC50 in experiment [1] (setting [4]) is 6.03 ± 4.09 µM; in experiment [2], more than 10 µM. The inhibition at 10 µM was more than 55% in experiment [1] and 54.5% in experiment [2]. Besides, the “IC50 U87MG cells as printed in the figure picture” value with U87MG cells is given as 8.963 x 10^-8.

Source of the values: PMC12564498, “Benzo[d]imidazole–Naphthalen-Arylmethanone Regioisomers as CB1 Ligands: Evaluation of Agonism via an Indirect Cytotoxicity-Based Approach” (International Journal of Molecular Sciences, 2025).
